The values below come from patent US20230000774A1, “METHODS AND COMPOSITIONS PRODUCED THEREBY” (Albumedix Limited, priority 2019, published 2023).

Values after ≈ are worked out from the molar mass of the structure shown. Read-outs that look alike come from different tables or passages of the source.

For data set [1] the following is noted: obtained from DrugBank; total charge at pH 7.4; cited from earlier work.
The conditions of data set [2]: cited from earlier work; for Water Solubility: obtained from DrugBank, rimiducid value provided by Bellicum Pharmaceuticals (estimated); for Solubility in water (literature): unformulated API.
Data set [3] in a line: Drug solubility testing of AP1903 in ethanol and methanol. The class given is physicochemical. As to the method: Drug solubility testing was undertaken to ascertain the highest concentration of drug solution that could be used for the preparation of the feed solution. […] Both were tested and found to perform similarly, with ˜40 mg of AP1903 dissolving into 1 mLl of solvent.

The next data set can be described thus: physchem. Particulars: organic solvent or mixture, thermodynamic from solid. The method, then: The solubility of nine poorly soluble APIs in ethanol was investigated; Acyclovir, Aripiprazole, Bifonazole, Etravirine, Ezetimibe, Glibenclamide. […] For each API, approximately 20 mg was weighed into a scintillation vial. 3 mL of ethanol was added to each vial. Samples were vortexed until completely dissolved. If after 2 mins the sample was not dissolved, a further 3 mL of ethanol was added, and the sample was vortexed again. After another 2 mins, if the sample was still not dissolved, the API in question was classed as insoluble.
To quickly assess the APIs applicability to this method, the solubility of each API in ethanol was tested.

A short description of data set [4]: Solubility of APIs in ethanol water mixtures. Type of data set: physicochemical. The conditions noted are these: ethanolic solution added to 50:50 EtOH:H2O. As to the method: APIs were dissolved in ethanol at the desired concentration (Tables 16 and 17). The required volume of this solution was added to a 50:50 solution of ethanol:HPLC grade water with stirring (Table 17).
To prepare the spray drying feed solution the API should preferably be soluble in 40:60 (v/v) ethanol/water mixtures. Any API that precipitated on addition of the ethanolic solution (from the previous section) to a 50:50 solution of EtOH:H2O was eliminated from the study.

The nature of data set [5]: Solubility of APIs in D5W solution. The class given is physicochemical. Particulars: saline or isotonic, thermodynamic from solid. As to the method: The solution was sampled after centrifugation (13.5 k rpm for 5 minutes) and the solubility of the APIs was determined by HPLC analysis of the saturated solution.
Analysis was performed on an Agilent 1200 series HPLC employing a Waters, Xbridge Peptide BEH C18 column (150×4.6 mm i.d., 3.5 μm). […] Bifonazole was analysed using a 1 mL/min flow rate of 65:35 HPLC methanol:ammonium acetate (5 g/L, pH 2) with UV detection at 252 nm.

Data set [6] can be described thus: Dissolution of curcumin in water and after spray drying with rHA. Type of data set: physicochemical. The conditions noted are these: unformulated.
The next data set is described as follows: DMSO solubility testing. Type of data set: physicochemical. As to the method: 1 mL of DMSO was added to a scintillation vial containing approximately 20 mg of Ezetimibe. The sample readily dissolved with gentle mixing.
A solution preparation method that utilised an alternative solvent was investigated. The alternative solvent needed to be similar to ethanol in its ability to dissolve the APIs whilst being miscible with water. Dimethyl sulfoxide (DMSO) was chosen as a promising candidate. Ezetimibe was chosen as a suitable API owing to its favourable COSHH assessment combined with the knowledge of DMSO as a transport agent. The solubility of Ezetimibe in DSMO was assessed by dissolving approx. 20 mg of API in 1 mL of solvent. […] The next step was to assess the API solubility in a mixture of DMSO and water.

Where [7] appears, read: D5W solution, unformulated API, saturated solution, read-out: Solubility in D5W solution.

Take `CC[C@H](C(=O)N1CCCC[C@H]1C(=O)O[C@H](CCc1ccc(OC)c(OC)c1)c1cccc(OCC(=O)NCCNC(=O)COc2cccc([C@@H](CCc3ccc(OC)c(OC)c3)OC(=O)[C@@H]3CCCCN3C(=O)[C@@H](CC)c3cc(OC)c(OC)c(OC)c3)c2)c1)c1cc(OC)c(OC)c(OC)c1` [AP1903, 1,2-Ethanediylbis[imino(2-oxo-2,1-ethanediyl)oxy-3,1-phenylene(1R)-3-(3,4-dimethoxyphen-yl)-1,1-propanediyl] (2S,2'S)bis{1-[(2S)-2-(3,4,5-trimethoxyphenyl)butanoyl]-2-piperidine-carboxylate}]: in data set [1], the “Physiological Charge” value is recorded as 0. Also, the “Water Solubility” value in data set [2] is “approximately 0.000001 mg/mL”; in data set [2] (listed as Rimiducid (AP1903)) it was 0.001 µg/mL. The “water solubility (estimated)” value in data set [2] (provided by Bellicum Pharmaceuticals) was 0.7 nM (≈ 0.988 ng/mL). In data set [3] (dissolving into 1 mL of ethanol), the “amount of AP1903 dissolving in ethanol” value is listed as approximately 40 mg. Besides, the “amount of AP1903 dissolving in methanol” value in data set [3] (dissolving into 1 mL of methanol) is approximately 40 mg.
The term solubility denotes the dissolved amount per volume that the medium holds. As to `Nc1nc2c(ncn2COCCO)c(=O)[nH]1` [Acyclovir], in the data set “physchem” (Soluble (>[…]) in EtOH?), the solubility was less than 1200 µg/mL.
As for `O=C1CCc2ccc(OCCCCN3CCN(c4cccc(Cl)c4Cl)CC3)cc2N1` [Aripiprazole], in data set [4], the “Soluble in EtOH/H2O mixture” value was “No”. The solubility in the data set “physchem” (Soluble (>[…]) in EtOH?) was more than 1200 µg/mL; in “physchem” (approximate concentration in ethanol at which completely solubilised), approximately 2200 µg/mL (≈ 4910 µM).
With `c1ccc(-c2ccc(C(c3ccccc3)n3ccnc3)cc2)cc1` (stereo not drawn) [Bifonazole], the “Soluble in EtOH/H2O mixture” value in data set [4] is “Yes”. Further, in data set [1], the “Physiological Charge” value is 0. In addition, in data set [2], the “Water Solubility” value is 2.45 µg/mL and the “Solubility in water (literature)” value was 2.5 µg/mL (≈ 8.05 µM). In “physchem” (Soluble (>[…]) in EtOH?), the solubility is more than 1200 µg/mL. Further, the solubility at 2 min in data set [5] amounted to 3.5 µg/mL (≈ 11.3 µM).
Turning to `COc1cc(/C=C/C(=O)CC(=O)/C=C/c2ccc(O)c(OC)c2)ccc1O` [Curcumin], the Water Solubility entry in data set [6] is “poorly water soluble”.
On to `C#C[C@]1(O)CC[C@H]2[C@@H]3CCC4=Cc5oncc5C[C@]4(C)[C@H]3CC[C@@]21C` [Danazol], for which, in data set [1], the “Physiological Charge” value is recorded as 0.
With `Cc1cc(C#N)cc(C)c1Oc1nc(Nc2ccc(C#N)cc2)nc(N)c1Br` [Etravirine], the “Physiological Charge” value in data set [1] is 0. The “Water Solubility” value in data set [2] was 16.9 µg/mL. Moreover, the solubility in “physchem” (Soluble (>[…]) in EtOH?) was less than 1200 µg/mL.
Regarding `O=C1[C@H](CC[C@H](O)c2ccc(F)cc2)[C@@H](c2ccc(O)cc2)N1c1ccc(F)cc1` [Ezetimibe], the “Soluble in EtOH/H2O mixture” value in data set [4] is listed as “Yes”. In addition, the “Physiological Charge” value in data set [1] was 0. For the same molecule, in data set [2], the “Water Solubility” value was 8.46 µg/mL and the “Solubility in water (literature)” value is 8.5 µg/mL (≈ 20.8 µM). The “solubility in a mixture of DMSO and water” value in “DMSO solubility testing” (addition to a 50:50 DMSO:water mixture) was “remained in solution”. Further, the “solubility in DMSO” value in the data set “DMSO solubility testing” (approx. 20 mg of API in 1 mL of DMSO) is given as “dissolved readily with gentle agitation”. In addition, in the data set “physchem” (Soluble (>[…]) in EtOH?), the solubility is more than 1200 µg/mL. The solubility at 2 min in data set [5] (setting [7]) came out at 3.4 µg/mL (≈ 8.3 µM).
For `COc1ccc(Cl)cc1C(=O)NCCc1ccc(S(=O)(=O)NC(=O)NC2CCCCC2)cc1` [Glibenclamide], the solubility in the data set “physchem” (Soluble (>[…]) in EtOH?) was less than 1200 µg/mL.
For `Cc1cccc(C)c1OCC(=O)N[C@@H](Cc1ccccc1)[C@@H](O)C[C@H](Cc1ccccc1)NC(=O)[C@H](C(C)C)N1CCCNC1=O` [Lopinavir], the “Soluble in EtOH/H2O mixture” value in data set [4] is recorded as “Yes”. For the same molecule, in data set [2], the “Water Solubility” value is 1.92 µg/mL and the “Solubility in water (literature)” value was 1.9 µg/mL (≈ 3.02 µM). Moreover, in “physchem” (Soluble (>[…]) in EtOH?), the solubility is more than 1200 µg/mL. In data set [5], the solubility at 2 min was found to be 14.9 µg/mL (≈ 23.7 µM).
Consider `O=C1NC(=O)C(c2ccccc2)(c2ccccc2)N1` [Phenytoin], for which the “Soluble in EtOH/H2O mixture” value in data set [4] is on record as “Yes”. The “Physiological Charge” value in data set [1] was 0. In addition, in data set [2], the “Water Solubility” value was 71.1 µg/mL and the “Solubility in water (literature)” value is 71.1 µg/mL (≈ 282 µM). Moreover, in the data set “physchem” (Soluble (>[…]) in EtOH?), the solubility is more than 1200 µg/mL. The solubility at 2 min in data set [5] (setting [7]) amounted to 14.1 µg/mL (≈ 55.9 µM).
As for `CO[C@H]1C[C@@H]2CC[C@@H](C)[C@@](O)(O2)C(=O)C(=O)N2CCCC[C@H]2C(=O)O[C@H]([C@H](C)C[C@@H]2CC[C@@H](O)[C@H](OC)C2)CC(=O)[C@H](C)/C=C(\C)[C@@H](O)[C@@H](OC)C(=O)[C@H](C)C[C@H](C)/C=C/C=C/C=C/1C` [Rapamycin (sirolimus), Rapamycin], the “Water Solubility” value in data set [2] was 1.73 µg/mL.
Take `CC(C)c1nc(CN(C)C(=O)N[C@H](C(=O)N[C@@H](Cc2ccccc2)C[C@H](O)[C@H](Cc2ccccc2)NC(=O)OCc2cncs2)C(C)C)cs1` [Ritonavir]: the “Physiological Charge” value in data set [1] is reported as 0.
As to `C=CC[C@@H]1/C=C(\C)C[C@H](C)C[C@H](OC)[C@H]2O[C@@](O)(C(=O)C(=O)N3CCCC[C@H]3C(=O)O[C@H](/C(C)=C/[C@@H]3CC[C@@H](O)[C@H](OC)C3)[C@H](C)[C@@H](O)CC1=O)[C@H](C)C[C@@H]2OC` [Tacrolimus], the “Physiological Charge” value in data set [1] is 0. Moreover, the “Water Solubility” value in data set [2] is 4.02 µg/mL.
